Target: T1, CCR2b (Homo sapiens, UniProt P41597)
T1 construct: host or cells: AequoScreen CCR2b cells
T1 sequence (P41597 1-360 isoform P41597-2): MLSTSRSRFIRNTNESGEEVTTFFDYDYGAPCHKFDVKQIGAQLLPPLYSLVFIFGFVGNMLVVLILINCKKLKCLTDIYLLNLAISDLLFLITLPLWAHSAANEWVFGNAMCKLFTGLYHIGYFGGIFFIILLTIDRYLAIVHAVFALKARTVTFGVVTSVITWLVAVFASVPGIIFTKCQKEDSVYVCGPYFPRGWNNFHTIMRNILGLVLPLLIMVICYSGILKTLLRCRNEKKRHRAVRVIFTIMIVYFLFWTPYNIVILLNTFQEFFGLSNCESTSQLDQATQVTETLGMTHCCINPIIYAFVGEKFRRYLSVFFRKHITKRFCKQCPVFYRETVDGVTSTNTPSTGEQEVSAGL
Assay: AequoScreen CCR2b calcium flux assay, antagonist mode against reference agonist MCP-1
Assay type: cell-based
Settings: AequoScreen CCR2b (FAST-060A) cells; inhibition of reference agonist MCP-1 at its EC80; read-out: IC50 (μM) Ca^++flux
Protocol: The biological activity of the compounds described herein can be evaluated using assays known in the art, such as the AequoScreen™ assay.
AequoScreen™ CCR2b (FAST-060A) cells grown to mid-log phase in culture media without antibiotics are detached with PBS-EDTA, centrifuged and resuspended in assay buffer (DMEM/HAM's F12 with HEPES, without phenol red+0.1% BSA protease free) at a concentration of 1×10^6 cells/mL. Cells are incubated at room temperature for at least 4 hours with coelenterazine h. Dose response curves are performed before testing. The reference agonist is MCP-1.
For agonist testing, 50 μL of cell suspension is mixed with 50 μL of test compound in a 96-well plate. The resulting emission of light is recorded using a Hamamatsu Functional Drug Screening System 6000 (FDSS 6000).
Following an incubation of 15 minutes after the first injection, 100 μL of the resulting cell suspension containing the test compound is mixed with 100 μL of the reference agonist in the 96 well test plate. The resulting emission of light is recorded using the same luminometer as for agonist testing.
Agonist activity of a test compound can be expressed as a percentage of the activity of the reference agonist at its EC100 concentration. Antagonist activity of a test compound can be expressed as a percentage of the inhibition of reference agonist activity at its EC80 concentration.

IC50: > 1 µM
Compound: CC(C)CC1(C(=O)N2CCc3ncc(C(F)(F)F)cc3C2)CCN(Cc2ccc3c(c2)sc(=O)n3C)CC1 [Example 58, 6-((4-Isobutyl-4-(3-(trifluoromethyl)-5,6,7,8-tetrahydro-1,6-naphthyridine-6-carbonyl)piperidin-1-yl)methyl)-3-methylbenzo[d]thiazol-2(3H)-one]
